From patent US8785478B2, “Viral polymerase inhibitors” (Biota Scientific Management Pty Ltd, priority 2012, dated 2014)
≈ marks a conversion by molar mass, not a printed value. Where two headings read alike, the source gives them in different places.

Legend:
[1] = Aqueous solubility (laser nephelometry); format: physicochemical; conditions: aqueous assay buffer with 1% DMSO, kinetic from dmso stock, 30 minute incubation at 25° C.
Protocol: Test compounds prepared in DMSO were screened in duplicate over a range of concentrations (1.6-100 ug/mL) in different aqueous media (for example a pH6.5 buffers which are relevant to the stomach and upper regions of the small intestine and therefore important when predicting the amount of drug likely to be in solution following oral administration). Test compounds were serially diluted in 100% DMSO ranging from 10-0.16 mg/mL. These titrated DMSO stocks were then further diluted 1:100 with assay buffer and added to test plates (UV Star Griener 384 well plates), maintaining the DMSO concentration at 1%.

[2] = test system: subgenomic genotype 2a (JFH-1) replicon cell line; assay: HCV replicon assay, genotype 2a (Renilla luciferase); format: cell-based; conditions: Hepatitis C virus; genotype 2a replicon; read-out: G2a (EC50 μM)
Protocol: (§1) A genotype 1b (Con 1) subgenomic replicon cell line based on Blight et al., Science 2000 290: 1972-1974, modified to express a Renilla luciferase reporter gene was used to assess antiviral activity of test compounds. Cell cultures were maintained in a sub-confluent state in DMEM with glutamine, 10% heat-inactivated foetal bovine serum (FBS) and G418 (Geneticin®).
(§2) For assay, cells were seeded at a density of 7000 cells/well into 96 well tissue culture trays in culture media lacking G418. Compounds were tested in a three fold dilution series, for example starting from 50 uM. After 72 hours incubation at 37° C. and 5% CO2, Renilla luciferase activity was quantified via the Promega Renilla Luciferase or Renilla-Glo™ Luciferase Assay Systems (Promega corporation. The same method was employed for replicon assays using subgenomic genotype 1a (H77) and 2a (JFH-1) replicon cell lines with a seeding cell density of 5000 cells/well for the 2a cell lines.
(§3) The compound concentration that reduced luciferase activity by 50% (EC50) was calculated using non-linear regression.

[3] = Cytotoxicity analysis (MTT); format: cell-based; conditions: genotype 1b replicon cells, three days, read-out: G1b (CC50 μM)
Protocol: Cytotoxicity of compounds against genotype 1b replicon cells was determined via metabolism of the vital dye 3-(4,5-dimethylthiaxol-2-yl)-2,5-diphenyltetrazolium bromide (MTT, for example see Watanabe et al., Journal of Virological Methods 1994 48:257-265). Plates were prepared as described for the HCV Replicon assay and cytotoxicity of the test article was evaluated after three days. MTT was added to assay plates followed by three hour incubation at 37° C. Wells were aspirated to dryness and the formazan dye dissolved by the addition of isopropanol. Absorbance values were read at 540/690 nm). The compound concentration that reduced cell viability by 50% (CC50) was calculated using non-linear regression.

[4] = test system: subgenomic genotype 1a (H77) replicon cell line; assay: HCV replicon assay, genotype 1a (Renilla luciferase); format: cell-based; conditions: Hepatitis C virus; genotype 1a replicon; read-out: G1a (EC50 μM)
Protocol: as §1, §2, §3

1b (BK) NS5BΔ21 = target: T1, 1b (BK) NS5BΔ21 (Hepatitis C virus genotype 1b, UniProt P26663); assay: HCV Polymerase Inhibition Assay; format: biochemical
T1 construct: 100 nM, 1b (BK) NS5BΔ21
T1 sequence (P26663 2420-2989, stated change not applied): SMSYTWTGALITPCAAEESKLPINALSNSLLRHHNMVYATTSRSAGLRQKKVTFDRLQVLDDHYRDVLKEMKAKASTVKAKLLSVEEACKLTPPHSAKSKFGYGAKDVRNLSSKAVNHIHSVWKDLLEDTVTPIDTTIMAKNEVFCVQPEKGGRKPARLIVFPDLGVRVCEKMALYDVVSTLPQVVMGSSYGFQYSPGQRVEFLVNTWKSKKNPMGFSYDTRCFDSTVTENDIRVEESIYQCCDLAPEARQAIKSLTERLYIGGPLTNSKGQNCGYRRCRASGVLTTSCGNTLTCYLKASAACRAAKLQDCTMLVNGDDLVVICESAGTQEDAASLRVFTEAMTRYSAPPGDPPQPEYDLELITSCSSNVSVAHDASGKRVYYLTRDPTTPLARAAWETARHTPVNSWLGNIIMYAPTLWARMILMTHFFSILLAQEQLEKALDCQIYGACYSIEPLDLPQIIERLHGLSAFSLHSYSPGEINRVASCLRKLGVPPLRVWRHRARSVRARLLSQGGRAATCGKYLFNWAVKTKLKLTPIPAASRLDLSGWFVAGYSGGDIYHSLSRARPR
Protocol: HCV polymerase reactions were carried out using a modified method of Howe et al., Antimicrobial Agents and Chemotherapy 2004 48(12): 4813-4821. Reactions contained a final concentration of, 0.5% DMSO, 100 nM, 1b (BK) NS5BΔ21, 20 mM Tris-HCl pH 7.5, 5 mM MgCl2, 5 mM MnCl2, 3 mM DTT, 0.05% BSA, 0.2 U/μL RNasin, 10 μg/mL Poly(rC) template, GTP (at Km) and 0.05 μCi/μL ^33P-GTP in a total reaction volume of 50 μL. Compounds were tested in a three fold dilution series, for example starting from 50 μM. Reactions were initiated with the addition of GTP and terminated after 90 min with 50 μL ice cold 0.2 M EDTA. Terminated reactions were transferred to DEAE 96-well filter plates, unincorporated nucleotides washed from the filters and 50 μL scintillation fluid added prior to reading on a scintillation counter. The compound concentration that reduced ^33P-GTP incorporation by 50% (IC50) was calculated using non-linear regression.

[5] = test system: genotype 1b (Con 1) subgenomic replicon cell line; assay: HCV replicon assay, genotype 1b (Renilla luciferase); format: cell-based; conditions: Hepatitis C virus, genotype 1b replicon
Protocol: as §1, §2, §3

`CNC(=O)c1c2cc(C3CC3)c(N(CCC3(C)COC3)S(C)(=O)=O)cc2nn1-c1ccc(C)cn1` [Compound 11, 5-cyclopropyl-N-methyl-6-{[2-(3-methyloxetan-3-yl)ethyl](methylsulfonyl)amino}-2-(5-methylpyridin-2-yl)-2H-indazole-3-carboxamide] showed a solubility at 30 min ([1]; aqueous buffer, pH 6.5, 1% DMSO, read-out: Solubility pH 6.5) of 50 to 100 µg/mL (≈ 100 to 201 µM), a solubility at 30 min ([1]; simulated gastric fluid, pH 2, 1% DMSO, read-out: Solubility pH 2) of 50 to 100 µg/mL (≈ 100 to 201 µM) and an EC50 [2] of 0.183 µM. The CC50 at 3 days [3] was > 50 µM, the EC50 [4] was 0.013 µM and the IC50 (1b (BK) NS5BΔ21; 1b polymerase IC50 (μM) range, genotype 1b NS5B, 33P-GTP incorporation) was 0.1 to 0.49 µM. For the same molecule, the IC50 (1b (BK) NS5BΔ21; NS5B G1b (IC50 μM), genotype 1b polymerase) was 0.4 µM, the EC50 ([5]; 72 hours, read-out: genotype 1b EC50 (μM) range) was < 0.1 µM and the EC50 ([5]; read-out: G1b (EC50 μM)) was 0.028 µM.
